The nature of the series: gradient 5% acetonitrile 3 min, to 50% in 2 min, to 85% in 15 min, held 3 min, 100 µL/min. Particulars: column: Zorbax Extend-C18 2.1 x 50 mm; eluents: water / acetonitrile, 0.1% formic acid. Summed up:
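Using water and acetonitrile that each contained 0.1% formic acid, mixtures of ~100 pure standards were separated at 100 μL/min on a Zorbax Extend-C18 column (2.1 × 50 mm, 1.8 μm). The HPLC fed a quadrupole time-of-flight mass spectrometer working in positive and negative ionization mode, with dead and dwell volumes of 40 μL and 900 μL. Data were acquired over 3 months. Retention time was read from computationally picked adduct peaks after manual inspection of each.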
With `Cc1cccc(S(=O)(=O)N2C[C@@H]3CN(S(=O)(=O)c4c(C)noc4C)C[C@H](C2)O3)c1`, the RP-LC retention time stood at 920 s.
Then `COCCN(C)C(=O)c1cc2c(s1)N(C)CCCC2`, with 770 s; and `O=C(CNC(=O)c1cccc(F)c1)Nc1nc2ccccc2[nH]1`, with 613 s; and `Cc1ccc(-c2nc(-c3ccc4nnn(C)c4c3)no2)c(C)c1`, with 1170 s.
The same measure for `Cc1nc(CNC(=O)[C@H]2CCCN2S(=O)(=O)c2cccc(C(F)(F)F)c2)cs1`: 787 s; for `CN1C(=O)c2cc(C(=O)NCc3ccccc3F)nn2CC1(C)C(=O)NC1CCCCCC1` (stereo unspecified): 839 s.
For `CCOC(=O)C1CCN(C(=O)c2cc(=O)c(OCc3ccc(F)cc3)cn2C)CC1`, the RP-LC retention time is 750 s.
The same measure for `CC(NC(=O)C(C)(C)C)C(=O)N1CCN(c2ccccn2)CC1` (stereo unspecified): 574 s.
Then `O=C(NCc1cccs1)C1CCN(S(=O)(=O)c2cc(-c3noc(C4CCC4)n3)cs2)CC1`, with 1000 s; and `CCN1C(=O)c2cccnc2Sc2cc(CNC(=O)c3ccc(OC)cc3)ccc21`, with 755 s.
Then `Cc1nc2cc(-c3noc(-c4ccccc4)n3)ccc2o1`, with 1050 s; and `OCCOCCNCc1ccc(-c2ccc(Cl)cc2)o1`, with 644 s.
`COc1cc(CN2C[C@@H]3C(=O)N(CCCN4CCCC4=O)C(=O)[C@@H]3C2)ccc1OC(C)C`: the RP-LC retention time amounted to 610 s.
Turning to `COC(=O)C1=C(C)NC2=C(C(=O)c3ccccc32)C1c1cccc(OC)c1` (stereo unspecified), the RP-LC retention time came to 917 s.
`O=C(NC1CC(=O)N(C2CC2)C1)c1cnc2ccccc2n1` (stereo unspecified): the RP-LC retention time stood at 594 s.
On to `Cc1ccc(Cl)cc1NC(=O)C1CCN(S(C)(=O)=O)c2ccccc2O1` (stereo unspecified), for which the RP-LC retention time was found to be 954 s.
In turn, `CC(=O)N1CCc2cc(CNS(=O)(=O)c3ccccc3)ccc21` had an RP-LC retention time of 691 s.
Then `COCc1nc(N2CCN(c3ccc(OC)cc3)CC2)ncc1C(=O)O`, with 666 s; and `O=S(=O)(c1cnc[nH]1)N1CCC(c2nc(CCOc3ccc(F)cc3)no2)C1` (stereo unspecified), with 762 s.
`CC(C)N1CCn2cc(S(=O)(=O)NCc3ccccc3Cl)cc2C1=O` came in with an RP-LC retention time of 769 s.
For `CCCC(=O)NCc1nc(-c2ccccc2Cl)no1`, the RP-LC retention time amounted to 755 s.
As to `CN(CC1CCOC1)C(=O)Nc1ccccc1Cl` (stereo unspecified), the RP-LC retention time stood at 722 s.
As for `CCc1nc(-c2csc(S(=O)(=O)N3CCCC(C(=O)Nc4ccc(C)cn4)C3)c2)no1` (stereo unspecified), the RP-LC retention time came out at 831 s.
With `COc1ccc(NC(=O)Cn2c(N3CCCC3)nc(C)cc2=O)c(OC)c1`, the RP-LC retention time was 626 s.
Then `O=C(c1ccsc1)N1CCN(c2ncnc3c2CCC3)CC1`, with 557 s; and `CCCC(=O)Nc1nc(-c2ccc3c(c2)NC(=O)CO3)c(C)s1`, with 752 s.
`CC(C)(NC(=O)c1cccs1)C(=O)N1CCN(c2ccccc2)CC1` showed an RP-LC retention time of 687 s.
`COc1cc2c(cc1CNC(=O)Cn1c(C)nc3cc4c(cc31)OCCO4)OCCCO2`: the RP-LC retention time is 643 s.
Then `CCOc1ccc(-c2[nH]nc3nc(-c4ccc(OC)cc4)cc(C(=O)O)c23)cc1`, with 654 s; and `O=S(=O)(c1ccc(-c2nnc(C3CC3)o2)o1)N1CCCC1`, with 771 s.
Then `Cc1cc(=O)n(CC(=O)Nc2ccc(F)c(Cl)c2)c(-c2ccccc2)n1`, with 1090 s; and `Cc1cc(N2CCC(NC(=O)Nc3ccc(F)cc3)C2=O)ccc1F` (stereo unspecified), with 849 s; and `Cc1ccc(CCNC(=O)CN2C(=O)C3CCCCN3c3ccc(S(=O)(=O)N(C)C)cc32)cc1` (stereo unspecified), with 943 s.
Then `O=C(Nc1ccccc1F)N1CCC(N2C(=O)C3(CCCCC3)C2c2ccccc2)CC1` (stereo unspecified), with 940 s; and `CCOC(=O)C(=O)NCc1nnnn1C1CCCCC1`, with 655 s; and `CC(=O)N1CCc2cc(CNS(=O)(=O)Cc3ccccc3)ccc21`, with 750 s.
`O=C(Cn1ccc2ccccc21)N1CCN(c2ccc(C(F)(F)F)cn2)CC1` came in with an RP-LC retention time of 982 s.
`CCCCN(C)C(=O)c1cn2cc(Cl)ccc2n1` gave an RP-LC retention time of 736 s.
The same measure for `Cc1ccccc1Cn1nc2ccc(S(=O)(=O)N3CCOCC3)cn2c1=O`: 818 s; for `CCCNC(=O)N1C[C@@H]2C(=O)N(Cc3ccc4c(c3)OCO4)C(=O)[C@@H]2C1`: 708 s.
Then `CSc1ccc(C2c3[nH]c4ccccc4c3CCN2C(=O)c2cccs2)cc1` (stereo unspecified), with 1220 s.
Then `CCN1C(=O)C2(CCN(C(=O)C3CC3)CC2)c2ccccc21`, with 779 s; and `Cc1ccccc1CNC(=O)C1(C)CCN(S(=O)(=O)c2ccc(Br)s2)CC1`, with 1050 s; and `Cc1ccc(NC(=O)Cc2c(C(=O)O)c(C)cn2C)nc1`, with 642 s.
With `COc1ccc2c(c1)C1(CCN(C(=O)Nc3ccc(C)cc3)C1)C(=O)N2` (stereo unspecified), the RP-LC retention time stood at 745 s.
The same measure for `O=C(Cn1c2ccccc2n2c(=O)cc(-c3ccncc3)nc12)NC1CCCC1`: 660 s; for `CC(=O)N1CCN(c2nc3c(s2)CC(C(=O)NCc2ccc(F)cc2F)CC3)CC1` (stereo unspecified): 544 s; for `Cc1cc2c(cc1S(=O)(=O)N1CCCC1C(=O)N1CCc3ccccc31)OCC(=O)N2` (stereo unspecified): 788 s.
The same measure for `CC(C)c1nc(-c2ccc(OC3CCN(C(=O)Cc4c[nH]c5ccccc45)C3)cc2)no1` (stereo unspecified): 923 s; for `NC(=O)C1CCN(C(=O)CN2CCN(c3ccccc3F)CC2)CC1`: 580 s.
Molecule `CCNC(=O)Nc1ccc(OCC(=O)NC(C)c2ccc(OC)cc2)nc1` (stereo unspecified) showed an RP-LC retention time of 701 s.
`CC(C)c1ccc(CNC(=O)C2CCCN(c3cc(=O)n(C)c(=O)n3C)C2)cc1` (stereo unspecified): the RP-LC retention time is 781 s.
Regarding `Cn1c(=O)n(C)c2cc(S(=O)(=O)c3ccc(F)cc3)c(NC(=O)c3ccccc3)cc21`, the RP-LC retention time stood at 885 s.
Turning to `CCCN1C(=O)c2c(C(=O)NCCc3ccc(C)cc3)ncn2CC1(C)C(=O)NCCC(C)C` (stereo unspecified), the RP-LC retention time worked out at 907 s.
In turn, `Cc1nc2cccnc2n1C1CCN(C(=O)Nc2ccc3c(c2)OCO3)CC1` showed an RP-LC retention time of 613 s.
The same measure for `COC(=O)c1ccc(NC(=O)C2CCCN(c3ncnc4c3nc3n4CCCCC3)C2)cc1` (stereo unspecified): 808 s.
The same measure for `CCCCC(=O)Nc1nc(-c2ccc3c(c2)N(C)C(=O)CO3)c(C)s1`: 925 s; for `CCn1c(=O)sc2cc(S(=O)(=O)N3CCC(C(=O)N(C)C4CCCCC4)CC3)ccc21`: 958 s.
The same measure for `CCCS(=O)(=O)N1CCC(N2C[C@H](OC)[C@@H]2c2cccnc2)CC1`: 561 s; for `Cc1ccc(Nc2c(-c3nc(C)no3)cnc3nc(C)ccc23)c(C)c1`: 825 s.
With `CCCNC(=O)N1[C@H]2CC[C@@H]1c1cnc(-c3ccccc3)nc1C2`, the RP-LC retention time was 790 s.
Then `CC(C)NC(=O)c1ccccc1OCC1CCCNC1` (stereo unspecified), with 583 s; and `COc1ncc(C(=O)N2CCCCC2)cn1`, with 628 s; and `O=C(c1cccs1)N1CCCC1c1ccc(F)cc1` (stereo unspecified), with 910 s.
Then `O=C(NCCn1c(-c2ccncc2)nc2cccnc21)Nc1ccccc1Cl`, with 624 s.
The same measure for `COc1cccc(OCC(O)CN2CCN(c3ccc(Cl)cc3)CC2)c1` (stereo unspecified): 724 s.
The molecule `CC1CCN(S(=O)(=O)c2ccc(-c3nnc(C(=O)N4CCOCC4)o3)cc2)CC1` had an RP-LC retention time of 797 s.
`Cn1nc(C(=O)N2CCCC2)c2c1CCN(C(=O)Nc1cccc(Br)c1)C2` came in with an RP-LC retention time of 804 s.
The molecule `COc1ccc(N2C=C(C(=O)N3CCOCC3)S(=O)(=O)c3ccc(F)cc32)cc1OC` registered an RP-LC retention time of 729 s.
Then `O=C1CN(C(=O)c2cccc(C(F)(F)F)c2)c2ccccc2N1`, with 732 s; and `CC1C(=O)NCCN1C(=O)CCSc1ccc(Cl)cc1` (stereo unspecified), with 674 s.
As to `CCn1c(C2CCN(C(=O)c3ccoc3)C2)nc2cccnc21` (stereo unspecified), the RP-LC retention time was 604 s.
In turn, `CCCn1cc(C(=O)Nc2ccc3c(c2)OCO3)c(=O)c2ccc(C)nc21` had an RP-LC retention time of 1100 s.
`CC(C)c1ccc(S(=O)(=O)N2C[C@@H](F)C[C@H]2C(=O)N2CCOCC2)cc1` registered an RP-LC retention time of 802 s.
Turning to `O=C(Nc1ccc(F)cc1F)N1CCN(c2cc(-c3ccncc3)[nH]n2)CC1`, the RP-LC retention time amounted to 596 s.
The same measure for `CC(C)Oc1ccc(-c2noc(CN3N=NC4C(=O)N(c5cccc(Cl)c5)C(=O)C43)n2)cc1` (stereo unspecified): 1040 s; for `Cc1cc(C)c(CNC(=O)c2cn3ccccc3n2)c(C)c1`: 783 s.
The same measure for `Cc1nccn1CC(=O)N1CCCn2cc(-c3ccccc3F)nc21`: 644 s; for `Cc1ccc(NC(=O)C2CCCN(c3ncnc4c3oc3ccccc34)C2)cc1C` (stereo unspecified): 868 s; for `Cn1ccnc1C(=O)N1CCCCCCNC(=O)[C@@H]2CCCC[C@@H]21`: 627 s.
The molecule `O=C(c1ccc(F)cc1F)N1CCN(c2ccc3nncn3n2)CC1` showed an RP-LC retention time of 601 s.

Values taken from the METLIN SMRT retention time set (Domingo-Almenara et al. 2019).
